Values quoted from earlier work in patent US6461590B2, “Stabilized gas-supersaturated suspensions and methods for their delivery” (Wayne State University, priority 1996, dated 2002).

- oxygen solubility: 0.008 cc O2/g/atm.
SMILES: OCC(O)CO [Glycerin]
